# Like-named read-outs stand apart in the source and are kept apart here.
# Experiments:
# S. aureus 05H (MARSA) = assay: MIC/MBC by broth microdilution, clinical strain 05H; format: cell-based, Staphylococcus aureus; conditions: for MBC / MIC: Staphylococcus aureus, 5 h; for MBC: read-out: Minimum Bactericidal Concentration (MBC)
# Method: (§1) The effluxing strains were kindly provided by Professor Simon Gibbons (University of London, London, UK), and the MARSA strains were obtained from the culture collection of the Laboratory of Microorganism Genetics (Department of Molecular Biology, Federal University of Paraíba). All strains were maintained on blood agar base slants (BAB, Difco Laboratories Ltd., Brazil), and prior to use, the cells were grown overnight at 37 °C in brain heart infusion broth (BHI, Difco Laboratories Ltd., Detroit, MI, USA).
# (§2) The stock solutions of the compounds were prepared in DMSO which at its highest final concentration after dilution in the broth (4%) caused no inhibition of bacterial growth. The minimum inhibitory concentrations (MICs) of the compounds were determined in BHI by microdilution assay using a suspension of ca. 10^5 cfu/mL and a drug concentration range of 256 to 0.5 μg/mL (two-fold serial dilutions). The MIC is defined as the lowest concentration at which no growth is observed. The dye resazurin was used for better visualization of the bacterial growth. […] The minimum bactericidal concentration (MBC) is defined as the lowest drug concentration that gives no growth on the agar.
# [1] = test system: S. aureus SA-1199B (overexpresses the NorA efflux protein); assay: MIC/MBC by broth microdilution, strain SA-1199B; format: cell-based; conditions: Staphylococcus aureus; for MBC: read-out: Minimum Bactericidal Concentration (MBC); for MIC: read-out: Minimum Inhibitory Concentration (MIC)
# Method: as §1, §2
# S. aureus 007 (MARSA) = assay: MIC/MBC by broth microdilution, clinical strain 007; format: cell-based; conditions: Staphylococcus aureus; for MIC: read-out: Minimum Inhibitory Concentration (MIC); for MBC: read-out: Minimum Bactericidal Concentration (MBC)
# Method: as §1, §2
# [2] = test system: S. aureus IS-58 (TetK tetracycline efflux protein); assay: MIC/MBC by broth microdilution, strain IS-58; format: cell-based; conditions: Staphylococcus aureus; for MBC: read-out: Minimum Bactericidal Concentration (MBC); for MIC: read-out: Minimum Inhibitory Concentration (MIC)
# Method: as §1, §2
# [3] = test system: S. aureus RN-4220 (plasmid pUL5054, MsrA macrolide efflux protein); assay: MIC/MBC by broth microdilution, strain RN-4220; format: cell-based; conditions: Staphylococcus aureus; for MBC: read-out: Minimum Bactericidal Concentration (MBC); for MIC: read-out: Minimum Inhibitory Concentration (MIC)
# Method: as §1, §2
# [4] = read-out: Minimum Inhibitory Concentration (MIC)
# [5] = strain 007, first number of cell MIC-MBC
# [6] = strain 007, second number of cell MIC-MBC
Structure (SMILES),MBC (S. aureus 05H (MARSA)),MIC (S. aureus 05H (MARSA); [4]),MBC [1],MIC [1],MIC (S. aureus 007 (MARSA); [5]),MBC (S. aureus 007 (MARSA); [6]),MBC [2],MIC (S. aureus 05H (MARSA)),fold more potent than the standard chloramphenicol (S. aureus 05H (MARSA); strain MARSA (05H)),melting point,MIC [2],MBC [3],MIC [3],MBC (S. aureus 007 (MARSA)),MIC (S. aureus 007 (MARSA))
"O=C(NN=Cc1ccc([N+](=O)[O-])o1)c1ccccc1 [Compound 4a, N′-((5-nitrofuran-2-yl)methylene)benzohydrazide]",8 µg/mL,8 µg/mL,16 µg/mL,16 µg/mL,8 µg/mL,8 µg/mL,–,–,–,–,–,–,–,–,–
"O=C(NN=Cc1ccc([N+](=O)[O-])o1)c1ccc(Cl)cc1 [Compound 4d, 4-Chloro-N′-((5-nitrofuran-2-yl)methylene)benzohydrazide]",4 µg/mL,4 µg/mL,16 µg/mL,16 µg/mL,8 µg/mL,8 µg/mL,16 µg/mL,4 µg/mL,16 fold,–,–,–,–,–,–
"CC(=O)N1N=C(c2ccc(C)cc2)OC1c1ccc([N+](=O)[O-])o1 (stereo not drawn) [Compound 5b, 1-(2-(5-Nitrofuran-2-yl)-5-(methylphenyl)-1,3,4-oxadiazol-3(2H)-yl)ethanone]",–,–,–,–,–,–,–,–,–,160 to 162 °C,–,–,–,–,–
"O=C(NN=Cc1ccc([N+](=O)[O-])o1)c1ccc([N+](=O)[O-])cc1 [Compound 4c, 4-Nitro-N′-((5-nitrofuran-2-yl)methylene)benzohydrazide]",8 µg/mL,8 µg/mL,32 µg/mL,32 µg/mL,8 µg/mL,16 µg/mL,–,–,–,–,16 µg/mL,32 µg/mL,16 µg/mL,–,–
"COc1ccc(C2=NN(C(C)=O)C(c3ccc([N+](=O)[O-])o3)O2)cc1 (stereo not drawn) [Compound 5e, 1-(2-(5-Nitrofuran-2-yl)-5-(methoxyphenyl)-1,3,4-oxadiazol-3(2H)-yl)ethanone]",–,–,–,–,–,–,–,–,–,181 to 183 °C,–,–,–,–,–
"O=C(N[C@H](CO)[C@H](O)c1ccc([N+](=O)[O-])cc1)C(Cl)Cl [Chloramphenicol, chloramphenicol, reference compound]",128 µg/mL,64 µg/mL,64 µg/mL,64 µg/mL,–,–,128 µg/mL,64 µg/mL,–,–,64 µg/mL,128 µg/mL,64 µg/mL,128 µg/mL,64 µg/mL
"CC(=O)N1N=C(c2ccc([N+](=O)[O-])cc2)OC1c1ccc([N+](=O)[O-])o1 (stereo not drawn) [Compound 5c, 1-(2-(5-Nitrofuran-2-yl)-5-(4-nitrophenyl)-1,3,4-oxadiazol-3(2H)-yl)ethanone]",8 µg/mL,8 µg/mL,32 µg/mL,32 µg/mL,16 µg/mL,16 µg/mL,–,–,–,188 to 190 °C,–,32 µg/mL,–,–,–
"Cc1ccc(C(=O)NN=Cc2ccc([N+](=O)[O-])o2)cc1 [Compound 4b, 4-Methyl-N′-((5-nitrofuran-2-yl)methylene)benzohydrazide]",4 µg/mL,4 µg/mL,32 µg/mL,16 µg/mL,8 µg/mL,8 µg/mL,–,–,–,–,–,–,–,–,–
"CC(=O)N1N=C(c2ccccc2)OC1c1ccc([N+](=O)[O-])o1 (stereo not drawn) [Compound 5a, 1-(2-(5-Nitrofuran-2-yl)-5-phenyl-1,3,4-oxadiazol-3(2H)-yl)ethanone]",16 µg/mL,16 µg/mL,–,–,32 µg/mL,32 µg/mL,16 µg/mL,–,–,178 to 180 °C,16 µg/mL,–,16 µg/mL,–,–
"COc1ccc(C(=O)NN=Cc2ccc([N+](=O)[O-])o2)cc1 [Compound 4e, 4-Methoxy-N′-((5-nitrofuran-2-yl)methylene)benzohydrazide]",4 µg/mL,4 µg/mL,16 µg/mL,16 µg/mL,8 µg/mL,8 µg/mL,–,–,–,–,–,16 µg/mL,16 µg/mL,–,–
CC(=O)N1N=C(c2ccc(Cl)cc2)OC1c1ccc([N+](=O)[O-])o1 (stereo not drawn) [Compound 5d],8 µg/mL,8 µg/mL,32 µg/mL,–,16 µg/mL,16 µg/mL,–,8 µg/mL,–,188 to 190 °C,–,32 µg/mL,–,–,–

# Source: article PMC6268585, “Synthesis, Molecular Properties Prediction, and Anti-staphylococcal Activity of N-Acylhydrazones and New 1,3,4-Oxadiazole Derivatives” (Molecules, 2012)
